Results reported in patent US10286033B2, “Methods and compositions comprising desmopressin in combination with an alpha-adrenergic receptor antagonist” (Serenity Pharmaceuticals, LLC, priority 2014, dated 2019).
Marks after values point to notes of the source that are not given here.

Columns and labels:
[1] = Clinical study of desmopressin nasal spray on the occurrence of nocturnal voiding (Responder / Non-Responder); assay type: in vivo, human
Experimental: A clinical study was performed to evaluate the impact of administering desmopressin in combination with an alpha-adrenergic receptor antagonist alone or together with a 5-alpha reductase inhibitor to reduce the occurrence of nocturnal voiding by a patient. Experimental procedures and results are described below. […] Patients received as a nasal spray either (i) a 1.5 μg dosage of desmopressin or (ii) placebo. The desmopressin nasal spray (or placebo) was administered daily just prior to bedtime for a duration of twelve weeks. In addition, patients previously diagnosed as suffering from benign prostatic hyperplasia (BPH) and receiving an alpha-adrenergic receptor antagonist alone or together a 5-alpha reductase inhibitor for treatment of BPH continued to receive the alpha-adrenergic receptor antagonist alone or together the 5-alpha reductase inhibitor at the same dosage and frequency used prior to enrollment in this study. All patients in this study who received an alpha-adrenergic receptor antagonist alone or together a 5-alpha reductase inhibitor for treatment of their BPH had been receiving the alpha-adrenergic receptor antagonist alone or together the 5-alpha reductase inhibitor for at least 2 months before enrollment in this study and experienced on average at least two nocturnal voids per night before enrollment in this study. The desmopressin nasal spray was prepared by combining aliquots of an Emulsion Stock Solution and a Buffer Solution as described below. To produce an emulsion stock solution, the following ingredients in parts by weight are added to a vessel equipped with a stirring bar, and mixed for 15 minutes at 60-65° C.: (i) 180 parts sorbitan monolaurate (Span-20) aqueous solution (12 mg/mL); (ii) 30 parts Polysorbate 20 (Tween-20) aqueous solution (2 mg/mL); (iii) 400 parts cottonseed oil aqueous emulsion (26.6 mg/mL); (iv) 600 parts cyclopentadecanolide (CPE-215) aqueous emulsion (40 mg/mL); and (v) water to produce 1,500 grams total batch size. After mixing, the preparation is homogenized using a high speed mixture at 6500 RPM+ for 20-25 minutes to produce a fine emulsion. This solution is autoclaved to assure sterility. To produce a citric acid buffer stock solution, the following ingredients in parts by weight are added to a vessel equipped with a stirring bar, and mixed for 5 minutes at 60-65° C.: (i) 6200 parts water; (ii) 16 parts anhydrous citric acid aqueous solution (1.85 mg/mL); (iii) 76 parts sodium citrate, dihydrate aqueous solution (8.9 mg/mL); (iv) 104 parts Polysorbate 20 (Tween-20) aqueous solution (12 mg/mL); and (v) water to produce 8,500 grams total batch size. To produce a desmopressin stock solution, 0.111 part desmopressin acetate trihydrate is added to sufficient buffer stock solution to produce 100.0 mL of solution, and stirred until all the desmopressin is dissolved to produce a stock solution having a concentration of 100 μg desmopressin/mL. From this stock solution a 30 μg/mL solution was prepared by dilution. To produce the desmopressin nasal spray, aliquots of the 30 μg/mL solution were filtered to eliminate any bacterial contamination and diluted with an equal volume of emulsion stock solution to produce aseptic, preservative free dose forms comprising 15 μg/mL desmopressin, pH 5.5, containing 2% cyclopentadecanolide. These were bottled in sterile pump spray bottles fitted with a Pfeiffer APF pump sprayers that deliver 100 μL per metered spray (i.e., 1.5 μg desmopressin (i.e., 1500 ng desmopressin) per spray). The liquid contains no detectable microorganisms. Patients recorded the occurrence of nocturnal voids during the study period. Patients were designated to be a “Responder” if after receiving treatment there was a reduction in the average number of nocturnal voids during the treatment period.

[2] = human, in vivo; cited from earlier work
[3] = BPH patients also receiving alpha-adrenergic receptor antagonist and 5-alpha reductase inhibitor, 1.5 μg nasal spray, 12 weeks, n = 21
[4] = BPH patients on alpha-adrenergic receptor antagonist alone or together with 5-alpha reductase inhibitor, n = 21
[5] = BPH patients, no alpha-adrenergic receptor antagonist or 5-alpha reductase inhibitor, n = 42
[6] = male patients without BPH, desmopressin only, n = 34

## NC(=O)CC[C@@H]1NC(=O)[C@H](Cc2ccccc2)NC(=O)[C@H](Cc2ccc(O)cc2)NC(=O)CCSSC[C@@H](C(=O)N2CCC[C@H]2C(=O)N[C@H](CCCN=C(N)N)C(=O)NCC(N)=O)NC(=O)[C@H](CC(N)=O)NC1=O [Desmopressin, 1-desamino-8-D-arginine vasopressin]
[1]; BPH patients also receiving alpha-adrenergic receptor antagonist (one patient also on an anticholinergic agent), 1.5 μg nasal spray, 12 weeks, n = 21
  Non-Responder Patients: Number of Patients that Received Desmopressin: 7**
[1]; [3]
  Non-Responder Patients: Number of Patients that Received Desmopressin: 2
  Responder Patients: Number of Patients that Received Desmopressin: 5
[1]; BPH patients also receiving alpha-adrenergic receptor antagonist, 1.5 μg nasal spray daily before bedtime, 12 weeks, n = 21 desmopressin group
  Responder Patients: Number of Patients that Received Desmopressin: 7
[1]; BPH patients on alpha-adrenergic receptor antagonist alone or together with 5-alpha reductase inhibitor
  Difference in Responder Response Rate Between Desmopressin-treated Patients & Those Receiving Placebo: 31%
[1]; BPH patients on alpha-adrenergic receptor antagonist alone or together with 5-alpha reductase inhibitor, listed as desmopressin
  Difference in Responder Response Rate Between Desmopressin-treated Patients & Those Receiving Placebo: 31%
[1]; [4]
  Non-Responder Patients: Total Number of Patients that Received Desmopressin: 9
  Percent Total Non-Responder Patients receiving desmopressin: 43%
  Percent Total Responder Patients (absolute response rate) receiving desmopressin: 57%
  Responder Patients: Total Number of Patients that Received Desmopressin: 12
[1]; BPH patients on alpha-adrenergic receptor antagonist alone or together with 5-alpha reductase inhibitor, n = 21, listed as desmopressin
  Percent Total Responder Patients (absolute response rate) receiving desmopressin: 57%
[1]; BPH patients, no alpha-adrenergic receptor antagonist or 5-alpha reductase inhibitor
  Difference in Responder Response Rate Between Desmopressin-treated Patients & Those Receiving Placebo: 14%
[1]; BPH patients, no alpha-adrenergic receptor antagonist or 5-alpha reductase inhibitor, listed as desmopressin
  Difference in Responder Response Rate Between Desmopressin-treated Patients & Those Receiving Placebo: 14%
[1]; [5]
  Non-Responder Patients: Number of Patients that Received Desmopressin: 24
  Percent Total Non-Responder Patients receiving desmopressin: 57%
  Percent Total Responder Patients (absolute response rate) receiving desmopressin: 43%
  Responder Patients: Number of Patients that Received Desmopressin: 18
[1]; BPH patients, no alpha-adrenergic receptor antagonist or 5-alpha reductase inhibitor, n = 42, listed as desmopressin
  Percent Total Responder Patients (absolute response rate) receiving desmopressin: 43%
[1]; desmopressin with alpha-adrenergic receptor antagonist alone or together with 5-alpha reductase inhibitor, versus desmopressin alone or the antagonist(s) without desmopressin
  Reduction in occurrence of nocturnal voiding, combination compared with single treatments (in words): greater percentage of patients experiencing a reduction in the occurrence of nocturnal voiding
[1]; male patients without BPH, desmopressin only
  Difference in Responder Response Rate Between Desmopressin-treated Patients & Those Receiving Placebo: 18%
[1]; male patients without BPH, desmopressin only, listed as desmopressin
  Difference in Responder Response Rate Between Desmopressin-treated Patients & Those Receiving Placebo: 18%
[1]; [6]
  Non-Responder Patients: Number of Patients that Received Desmopressin: 16
  Percent Total Non-Responder Patients receiving desmopressin: 47%
  Percent Total Responder Patients (absolute response rate) receiving desmopressin: 53%
  Responder Patients: Number of Patients that Received Desmopressin: 18
[1]; male patients without BPH, desmopressin only, n = 34, listed as desmopressin
  Percent Total Responder Patients (absolute response rate) receiving desmopressin: 53%
[2]
  half-life (known clearance rate): 1.5 to 2.0 h
